Patent publication US9840522B2, “Multi-modal bioprobe for bladder cancer imaging and photodynamic therapy” (Hong Kong Baptist University, priority 2014, dated 2017)

System: xenograft tumor (T24 bladder cancer cells)
Experiment: In vivo magnetic resonance imaging after tail vein injection
Set-up: species or system mice
Details: MRI immediately
Procedure: After tail vein injection of Gd-3-R1 and Gd-DOTA into the mice, MRI experiment is conducted immediately.

## O=C([O-])CN1CCN(CC(=O)[O-])CCN(CC(=O)O)CCN(CC(=O)[O-])CC1.[Gd+3] [Gd-DOTA]
  MRI contrast effect on xenograft tumor: enhances the whole body signal without selectivity toward the tumor
